Key:
Dbl-inducible MEFs = assay: Foci forming assay; assay type: cell-based, mouse; settings: MEFs expressing Dbl, 10 μM 968
Excerpt: Inducible oncogenic Dbl cell lines were created using the TET-OFF system in mouse embryonic fibroblasts (MEFs) following the manufacturer's instructions (Clontech). Briefly, PCR products for onco-Dbl-containing NotI and XbaI restriction endonuclease sites were cloned in the per2.1 vector using the TOPO-TA cloning kit (Invitrogen) and subsequently subcloned into the p-TREHA vector (Clontech). The pTRE-HA-onco-Dbl was then co-transfected with pMET-Puro in a 20:1 ratio into parental MEFs (Clontech), which contained the transcriptional transactivator (tTa), with Lipofectamine (Invitrogen). Cells were placed under puromycin selection at 48 hours post transfection, and colonies were selected after 2-4 weeks for doxycycline-dependent expression of HA-onco-Dbl using HA.11 antibody (Covance). Cells were maintained in DMEM supplemented with 10% (v/v) Tet system-approved FBS (clontech) and 100 μg/mL G418 (Gibco). To suppress Dbl expression, 1 μg/mL doxycycline was added to the medium every 2 days. Cells were induced by re-plating in doxycycline-free medium where residual doxycycline was removed by replacing the medium 3 hours after plating. Immunofluorescence was conducted on cells grown 48-72 hours on glass cover slips and fixed with 3.7% formaldehyde. […] Digital images were collected using a Zeiss fluorescence microscope and AxioVision 3.1 software. […]

[1] = tested on: glutamine metabolism in Dbl-MEFs; assay: Metabolic tracing, mass isotopologue distribution with [U-13C]glutamine or [U-13C]glucose; assay type: cell-based, mouse
Method: Methods for mass isotopologue distribution analyses using [U-^13C]glutamine or [U-^13C]glucose (Cambridge Isotope Laboratories) were adapted from Cheng et al., “Pyruvate Carboxylase Is Required for Glutamine-Independent Growth of Tumor Cells,” Proc. Natl. Acad. Sci. 108:8674-79 (2011), which is hereby incorporated by reference in its entirety. Briefly, induced (16 hours in complete media without Dox) or non-induced cells (complete media with 1 μg/mL Dox) were plated into 100 mm^2 dishes at a density such that the cells were approximately 60% confluent when adhered, at which point the cells were washed with PBS and grown to 80% confluence in DMEM supplemented with 1% Tet-approved FBS and 8 μM 968/27 for drug treated samples, or 0.8% DMSO for control samples, with or without 1 μg/mL Dox (i.e. overnight). When 80% confluent, cells were then washed with PBS and ^13C-labeling media containing the appropriate drug, DMSO, and Dox concentrations. Media was prepared from glucose- and glutamine-free DMEM powder (Sigma) and supplemented with 1% Tet-approved FBS, 2 mM L[U-^13C]glutamine and 15 mM unlabeled glucose or 15 mM D[U-^13C]glucose and 2 mM unlabeled glutamine (FIGS. 2F-G), together with 1 μg/mL Dox for non-induced samples. For samples containing [U-^13C]glutamine, cells were incubated for 1 hour before extracting metabolites, whereas samples containing [U-^13C]glucose were incubated for 8 hours. Metabolites were extracted by first washing cells twice with ice cold normal saline (0.9% w/v NaCl), followed by addition of 0.5 mL of a 1:1 methanol:water mixture (−20° C.). An internal standard (50 nmol of 2-oxobutyrate) was added and samples were subjected to 3 freeze-thaw cycles, after which macromolecules were separated by centrifugation. The supernatant was evaporated completely and remaining metabolites silylated in 100 μL of a trimethylsilyl donor (Tri-Sil, Thermo) for 30 minutes at 42° C. Metabolites were subjected to GC-MS analysis using an Agilent 6970 gas chromatograph networked to an Agilent 5973 mass selective detector. Metabolites were identified and isotope enrichment calculated as described by Cheng et al., “Pyruvate Carboxylase Is Required for Glutamine-Independent Growth of Tumor Cells,” Proc. Natl. Acad. Sci. 108:8674-79 (2011), which is hereby incorporated by reference in its entirety.

[2] = 8 μM, non-induced and induced cells

SMILES: CN(C)c1ccc(C2Nc3ccc4ccccc4c3C3=C2C(=O)CC(C)(C)C3)cc1Br (centres unmarked) [Compound 968]
- Dbl-induced focus formation (Dbl-inducible MEFs): blocked
- glucose labeling of citrate isotopologues (M+2) ([1]; 8 μM overnight, 8 hour [U-13C]glucose): inhibit
- glutamate pool sizes [1, 2]: modest decrease
- pool sizes of fumarate, malate, and citrate [1, 2]: no effect
- glutamine-derived 13C isotopic enrichment within TCA cycle intermediates ([1]; Dbl-expressing cells, 8 μM overnight, 1 hour [U-13C]glutamine): significant reductions

— patent publication US10526322B2, “Inhibitors of kidney-type glutaminase, GLS-1” (CORNELL UNIVERSITY, priority 2014, dated 2020)
